Tested on: cell culture
Experiment: cell culture experiments (toxic effects)
Assay type: cell-based
Conditions: at concentrations of up to 5 mM

With `C=CC(=O)NCCCC[C@H](N)C(=O)O` [acryloyl-lysine, (S)-6-acrylamido-2-aminohexanoic acid] the “toxic effects in cell culture experiments” value was “do not exhibit any toxic effects”.

Reference: patent US12558432B2, “Biocompatible polymeric drug carriers for delivering active agents” (CIS BIOPHARMA AG, priority 2019, dated 2026)
